# According to PubChem BioAssay AID504401 (The Scripps Research Institute Molecular Screening Center, 2011):
# Calls of active or inactive are those of the source. The rule behind the calls is not given here.
# Legend:
# Experiment in all cases: CYP450 and receptor off-target profile – biochemical, Ricerca HitProfilingScreen, selectivity assay for GPR7 antagonist project, late-stage follow-up (AID 504401)
# [1] = target: Alpha-2A adrenergic receptor (Homo sapiens) (UniProt P08913); conditions: Ricerca radioligand binding and CYP450 panel; Adrenergic alpha2A; at 10 µM; stronger effect = higher value
# [2] = system: Adrenergic alpha1B; conditions: Ricerca radioligand binding and CYP450 panel, at 10 µM, stronger effect = higher value
# [3] = system: Alpha-2A adrenergic receptor (Homo sapiens) + Histamine H1 receptor (Homo sapiens) + Mu-type opioid receptor (Homo sapiens); conditions: Ricerca radioligand binding and CYP450 panel; at 10 µM; stronger effect = higher value
# [4] = target: Muscarinic acetylcholine receptor M3 (Homo sapiens) (UniProt P20309); conditions: Ricerca radioligand binding and CYP450 panel, at 10 µM, stronger effect = higher value
# [5] = target: Beta-2 adrenergic receptor (Homo sapiens) (UniProt P07550); conditions: Ricerca radioligand binding and CYP450 panel; Adrenergic beta2; at 10 µM; stronger effect = higher value
# [6] = system: Cannabinoid CB1; conditions: Ricerca radioligand binding and CYP450 panel, at 10 µM, stronger effect = higher value
# [7] = system: Prostanoid EP4; conditions: Ricerca radioligand binding and CYP450 panel, at 10 µM, stronger effect = higher value
# [8] = system: Adenosine A2A; conditions: Ricerca radioligand binding and CYP450 panel, at 10 µM, stronger effect = higher value
# [9] = system: Adrenergic beta1; conditions: Ricerca radioligand binding and CYP450 panel, at 10 µM, stronger effect = higher value
# [10] = system: Sodium Channel; conditions: Ricerca radioligand binding and CYP450 panel, site 2, at 10 µM, stronger effect = higher value
# [11] = system: CYP450 2C19; conditions: Ricerca radioligand binding and CYP450 panel, at 10 µM, stronger effect = higher value
# [12] = system: Dopamine D2S; conditions: Ricerca radioligand binding and CYP450 panel, at 10 µM, stronger effect = higher value
# [13] = target: D(1A) dopamine receptor (Homo sapiens) (UniProt P21728); conditions: Ricerca radioligand binding and CYP450 panel; Dopamine D1; at 10 µM; stronger effect = higher value
# [14] = target: Cytochrome P450 2D6 (Homo sapiens) (UniProt P10635); conditions: Ricerca radioligand binding and CYP450 panel; CYP450 2D6; at 10 µM; stronger effect = higher value
# [15] = system: GABAA; conditions: Ricerca radioligand binding and CYP450 panel, central, at 10 µM, stronger effect = higher value
# [16] = system: Nicotinic Acetylcholine; conditions: Ricerca radioligand binding and CYP450 panel, at 10 µM, stronger effect = higher value
# [17] = system: Adrenergic alpha1A; conditions: Ricerca radioligand binding and CYP450 panel, at 10 µM, stronger effect = higher value
# [18] = target: Cytochrome P450 2C9 (Homo sapiens) (UniProt P11712); conditions: Ricerca radioligand binding and CYP450 panel; CYP450 2C9; at 10 µM; stronger effect = higher value
# [19] = system: Norepinephrine Transporter (NET); conditions: Ricerca radioligand binding and CYP450 panel, at 10 µM, stronger effect = higher value
# [20] = system: Calcium Channel L-Type; conditions: Ricerca radioligand binding and CYP450 panel, Dihydropyridine site, at 10 µM, stronger effect = higher value
# [21] = target: Cytochrome P450 1A2 (Homo sapiens) (UniProt P05177); conditions: Ricerca radioligand binding and CYP450 panel; CYP450 1A2; at 10 µM; stronger effect = higher value
# [22] = target: Cytochrome P450 3A4 (Homo sapiens) (UniProt P08684); conditions: Ricerca radioligand binding and CYP450 panel; CYP450 3A4; at 10 µM; stronger effect = higher value
# [23] = system: Opiate mu (OP3, MOP); conditions: Ricerca radioligand binding and CYP450 panel, at 10 µM, stronger effect = higher value
# [24] = target: 5-hydroxytryptamine receptor 2B (Homo sapiens) (UniProt P41595); conditions: Ricerca radioligand binding and CYP450 panel; Serotonin (5-Hydroxytryptamine) 5-HT2B; at 10 µM; stronger effect = higher value
# [25] = system: Sigma 1; conditions: Ricerca radioligand binding and CYP450 panel, at 10 µM, stronger effect = higher value
# [26] = system: Histamine H1; conditions: Ricerca radioligand binding and CYP450 panel, at 10 µM, stronger effect = higher value
# [27] = target: Muscarinic acetylcholine receptor M2 (Homo sapiens) (UniProt P08172); conditions: Ricerca radioligand binding and CYP450 panel, at 10 µM, stronger effect = higher value
# [28] = system: Adenosine A1; conditions: Ricerca radioligand binding and CYP450 panel, at 10 µM, stronger effect = higher value
# [29] = target: Voltage-gated inwardly rectifying potassium channel KCNH2 (Homo sapiens) (UniProt Q12809); conditions: Ricerca radioligand binding and CYP450 panel; Potassium Channel hERG; at 10 µM; stronger effect = higher value
# [30] = system: Glutamate NMDA; conditions: Ricerca radioligand binding and CYP450 panel, Phencyclidine site, at 10 µM, stronger effect = higher value
# Cytochrome P450 2D6 (Homo sapiens), sequence (P10635 whole entry, looked up): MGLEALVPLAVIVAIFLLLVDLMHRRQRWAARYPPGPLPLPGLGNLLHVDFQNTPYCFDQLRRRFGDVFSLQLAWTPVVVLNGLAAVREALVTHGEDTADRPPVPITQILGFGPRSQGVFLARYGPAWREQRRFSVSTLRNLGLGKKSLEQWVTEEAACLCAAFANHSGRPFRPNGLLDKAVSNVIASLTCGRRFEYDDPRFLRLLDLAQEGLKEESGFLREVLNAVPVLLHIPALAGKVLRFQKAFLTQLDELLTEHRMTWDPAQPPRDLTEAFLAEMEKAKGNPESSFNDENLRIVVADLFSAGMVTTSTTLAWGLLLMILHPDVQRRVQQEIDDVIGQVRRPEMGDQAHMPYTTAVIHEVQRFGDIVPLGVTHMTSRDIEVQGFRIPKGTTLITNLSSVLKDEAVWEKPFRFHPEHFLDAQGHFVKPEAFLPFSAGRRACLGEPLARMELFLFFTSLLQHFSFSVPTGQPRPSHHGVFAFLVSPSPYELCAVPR
# Alpha-2A adrenergic receptor (Homo sapiens), sequence (P08913 whole entry, looked up): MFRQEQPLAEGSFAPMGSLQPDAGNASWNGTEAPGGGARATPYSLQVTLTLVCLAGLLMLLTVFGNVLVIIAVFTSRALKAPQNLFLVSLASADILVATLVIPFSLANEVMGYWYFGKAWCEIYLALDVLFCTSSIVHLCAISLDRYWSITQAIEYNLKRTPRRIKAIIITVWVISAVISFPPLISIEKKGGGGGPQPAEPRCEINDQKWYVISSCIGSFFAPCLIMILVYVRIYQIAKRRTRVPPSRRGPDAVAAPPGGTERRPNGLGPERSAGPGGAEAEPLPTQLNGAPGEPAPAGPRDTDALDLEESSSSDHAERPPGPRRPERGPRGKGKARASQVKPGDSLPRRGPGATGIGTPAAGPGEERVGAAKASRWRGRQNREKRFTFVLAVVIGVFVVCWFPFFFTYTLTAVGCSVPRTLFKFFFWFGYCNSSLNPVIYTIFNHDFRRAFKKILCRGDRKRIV
# Beta-2 adrenergic receptor (Homo sapiens), sequence (P07550 whole entry, looked up): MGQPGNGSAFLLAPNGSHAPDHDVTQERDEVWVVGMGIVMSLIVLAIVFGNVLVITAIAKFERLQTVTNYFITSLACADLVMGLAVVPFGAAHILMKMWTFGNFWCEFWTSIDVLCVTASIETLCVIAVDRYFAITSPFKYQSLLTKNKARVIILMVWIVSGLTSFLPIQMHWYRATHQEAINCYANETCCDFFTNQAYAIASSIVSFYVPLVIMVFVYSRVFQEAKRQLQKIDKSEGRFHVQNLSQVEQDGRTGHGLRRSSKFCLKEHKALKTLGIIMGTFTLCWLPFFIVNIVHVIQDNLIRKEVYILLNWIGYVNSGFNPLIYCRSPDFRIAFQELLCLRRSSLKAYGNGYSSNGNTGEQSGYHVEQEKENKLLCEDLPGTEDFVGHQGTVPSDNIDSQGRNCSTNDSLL
# Cytochrome P450 3A4 (Homo sapiens), sequence (P08684 whole entry, looked up): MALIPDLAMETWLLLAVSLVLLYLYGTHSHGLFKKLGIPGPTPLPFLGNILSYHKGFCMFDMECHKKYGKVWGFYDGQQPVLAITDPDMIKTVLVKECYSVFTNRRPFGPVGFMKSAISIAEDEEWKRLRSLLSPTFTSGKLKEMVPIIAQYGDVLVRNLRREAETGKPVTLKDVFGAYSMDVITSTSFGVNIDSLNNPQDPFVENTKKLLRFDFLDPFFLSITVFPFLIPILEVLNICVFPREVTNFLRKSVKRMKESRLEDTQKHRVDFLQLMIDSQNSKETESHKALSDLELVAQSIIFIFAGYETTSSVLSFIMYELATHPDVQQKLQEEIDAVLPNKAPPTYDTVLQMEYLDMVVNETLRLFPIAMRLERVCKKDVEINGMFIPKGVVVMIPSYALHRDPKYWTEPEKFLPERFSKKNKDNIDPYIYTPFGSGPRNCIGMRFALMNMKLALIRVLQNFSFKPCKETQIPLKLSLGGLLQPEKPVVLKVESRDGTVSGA
# Muscarinic acetylcholine receptor M2 (Homo sapiens), sequence (P08172 whole entry, looked up): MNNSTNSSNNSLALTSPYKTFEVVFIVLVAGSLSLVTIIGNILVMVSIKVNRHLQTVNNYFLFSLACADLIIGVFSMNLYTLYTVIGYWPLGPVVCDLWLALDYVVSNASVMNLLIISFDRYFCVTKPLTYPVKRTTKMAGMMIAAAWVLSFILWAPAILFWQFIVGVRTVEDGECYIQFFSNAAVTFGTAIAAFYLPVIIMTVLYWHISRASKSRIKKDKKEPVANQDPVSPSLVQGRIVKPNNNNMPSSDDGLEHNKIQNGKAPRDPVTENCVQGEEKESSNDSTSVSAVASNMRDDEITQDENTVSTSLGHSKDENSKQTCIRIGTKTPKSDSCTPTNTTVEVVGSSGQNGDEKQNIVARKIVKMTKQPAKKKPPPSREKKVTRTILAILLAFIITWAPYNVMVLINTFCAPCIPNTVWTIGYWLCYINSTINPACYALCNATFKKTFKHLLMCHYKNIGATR
# 5-hydroxytryptamine receptor 2B (Homo sapiens), sequence (P41595 whole entry, looked up): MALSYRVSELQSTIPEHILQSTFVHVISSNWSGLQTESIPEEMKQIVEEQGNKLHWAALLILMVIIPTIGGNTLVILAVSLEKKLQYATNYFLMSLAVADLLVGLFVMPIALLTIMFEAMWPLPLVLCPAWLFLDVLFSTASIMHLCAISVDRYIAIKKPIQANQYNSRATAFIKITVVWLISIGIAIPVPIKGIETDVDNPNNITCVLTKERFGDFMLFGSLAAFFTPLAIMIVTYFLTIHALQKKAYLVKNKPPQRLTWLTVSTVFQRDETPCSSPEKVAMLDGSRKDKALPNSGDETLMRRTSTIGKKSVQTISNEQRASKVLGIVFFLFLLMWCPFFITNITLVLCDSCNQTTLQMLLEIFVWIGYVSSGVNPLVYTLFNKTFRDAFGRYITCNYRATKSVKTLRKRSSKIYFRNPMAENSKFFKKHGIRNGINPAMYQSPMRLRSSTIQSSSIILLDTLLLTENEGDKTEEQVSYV
# Muscarinic acetylcholine receptor M3 (Homo sapiens), sequence (P20309 whole entry, looked up): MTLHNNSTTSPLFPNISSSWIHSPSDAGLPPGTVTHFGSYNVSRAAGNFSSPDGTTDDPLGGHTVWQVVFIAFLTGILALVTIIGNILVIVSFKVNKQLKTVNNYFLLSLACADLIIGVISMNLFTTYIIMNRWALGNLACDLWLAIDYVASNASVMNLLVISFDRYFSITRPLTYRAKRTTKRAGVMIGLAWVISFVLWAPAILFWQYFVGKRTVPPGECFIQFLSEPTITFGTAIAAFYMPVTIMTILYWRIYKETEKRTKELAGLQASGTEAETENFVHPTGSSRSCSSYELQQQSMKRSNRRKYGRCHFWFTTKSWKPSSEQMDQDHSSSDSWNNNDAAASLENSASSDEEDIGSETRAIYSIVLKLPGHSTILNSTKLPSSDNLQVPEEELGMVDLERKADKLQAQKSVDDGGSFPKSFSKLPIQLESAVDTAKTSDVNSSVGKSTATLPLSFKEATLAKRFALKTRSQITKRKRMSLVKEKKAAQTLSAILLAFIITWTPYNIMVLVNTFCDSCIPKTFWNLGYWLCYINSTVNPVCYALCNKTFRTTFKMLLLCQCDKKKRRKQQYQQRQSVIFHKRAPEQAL
# Voltage-gated inwardly rectifying potassium channel KCNH2 (Homo sapiens), sequence (Q12809 whole entry, looked up): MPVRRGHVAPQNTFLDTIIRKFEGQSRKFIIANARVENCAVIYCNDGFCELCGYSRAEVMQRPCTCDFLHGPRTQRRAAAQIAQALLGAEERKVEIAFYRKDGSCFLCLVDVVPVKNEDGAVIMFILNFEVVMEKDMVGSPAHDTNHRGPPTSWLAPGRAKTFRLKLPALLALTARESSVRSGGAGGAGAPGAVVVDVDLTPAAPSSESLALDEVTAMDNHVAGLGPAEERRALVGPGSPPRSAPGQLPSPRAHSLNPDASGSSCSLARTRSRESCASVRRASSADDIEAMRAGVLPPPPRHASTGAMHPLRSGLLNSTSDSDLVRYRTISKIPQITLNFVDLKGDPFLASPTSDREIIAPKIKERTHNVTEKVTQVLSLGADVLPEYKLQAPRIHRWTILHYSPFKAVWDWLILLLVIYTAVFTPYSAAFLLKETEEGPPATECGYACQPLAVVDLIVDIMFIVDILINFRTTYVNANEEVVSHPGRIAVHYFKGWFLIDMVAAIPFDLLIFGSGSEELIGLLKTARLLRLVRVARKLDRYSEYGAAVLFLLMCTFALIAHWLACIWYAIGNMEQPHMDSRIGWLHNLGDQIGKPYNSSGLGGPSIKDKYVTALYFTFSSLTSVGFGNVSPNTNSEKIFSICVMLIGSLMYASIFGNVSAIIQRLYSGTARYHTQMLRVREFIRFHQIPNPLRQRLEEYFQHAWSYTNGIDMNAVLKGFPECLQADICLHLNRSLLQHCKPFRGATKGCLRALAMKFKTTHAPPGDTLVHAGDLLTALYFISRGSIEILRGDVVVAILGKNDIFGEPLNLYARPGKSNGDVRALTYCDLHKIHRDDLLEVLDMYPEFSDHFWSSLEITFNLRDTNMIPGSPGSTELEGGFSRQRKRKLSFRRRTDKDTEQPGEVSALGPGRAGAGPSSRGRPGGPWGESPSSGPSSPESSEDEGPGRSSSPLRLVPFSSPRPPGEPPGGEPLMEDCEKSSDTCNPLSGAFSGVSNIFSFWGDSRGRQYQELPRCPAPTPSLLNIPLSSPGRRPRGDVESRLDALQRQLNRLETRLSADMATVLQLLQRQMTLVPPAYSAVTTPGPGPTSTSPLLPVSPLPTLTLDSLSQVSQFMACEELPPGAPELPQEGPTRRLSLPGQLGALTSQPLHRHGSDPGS
# D(1A) dopamine receptor (Homo sapiens), sequence (P21728 whole entry, looked up): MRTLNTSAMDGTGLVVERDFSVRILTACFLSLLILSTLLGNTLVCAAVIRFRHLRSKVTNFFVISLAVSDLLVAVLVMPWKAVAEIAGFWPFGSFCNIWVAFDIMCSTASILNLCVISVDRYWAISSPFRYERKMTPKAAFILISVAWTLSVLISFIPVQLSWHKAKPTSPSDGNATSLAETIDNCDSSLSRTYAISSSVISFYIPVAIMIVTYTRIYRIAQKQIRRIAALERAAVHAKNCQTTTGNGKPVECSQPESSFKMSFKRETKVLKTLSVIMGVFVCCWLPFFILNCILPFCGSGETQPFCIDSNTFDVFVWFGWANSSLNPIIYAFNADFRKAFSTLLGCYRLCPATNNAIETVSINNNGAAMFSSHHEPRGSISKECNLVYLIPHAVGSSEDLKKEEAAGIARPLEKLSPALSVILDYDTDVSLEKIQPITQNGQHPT
structure (smiles),measurement,setting,value
COc1ccc(Oc2c(Cl)cnn(-c3cc(C)cc(C)c3)c2=O)cc1,inhibition,[1],8% (inactive)
same,inhibition,[2],3% (inactive)
same,inhibition,[3],-3% (inactive)
same,inhibition,[4],0% (inactive)
same,inhibition,[5],-2% (inactive)
same,inhibition,[6],25% (inactive)
same,inhibition,[7],2% (inactive)
same,inhibition,[8],14% (inactive)
same,inhibition,[9],13% (inactive)
same,inhibition,[10],23% (inactive)
same,inhibition,[11],-3% (inactive)
same,inhibition,[12],13% (inactive)
same,inhibition,[13],5% (inactive)
same,inhibition,[14],16% (inactive)
same,inhibition,[15]; Flunitrazepam site,-1% (inactive)
same,inhibition,[15]; Muscimol site,4% (inactive)
same,inhibition,[16],-22% (inactive)
same,inhibition,[17],2% (inactive)
same,inhibition,[18],5% (inactive)
same,inhibition,[19],47% (inactive)
same,inhibition,[20],26% (inactive)
same,inhibition,[21],11% (inactive)
same,inhibition,[22],53%
same,inhibition,[23],-7% (inactive)
same,inhibition,[24],8% (inactive)
same,inhibition,[25],-4% (inactive)
same,inhibition,[26],16% (inactive)
same,inhibition,[27],2% (inactive)
same,inhibition,[28],19% (inactive)
same,inhibition,[29],13% (inactive)
same,inhibition,[30],-3% (inactive)
